The values below come from patent US20250215029A1 (Recludix Pharma, Inc., priority 2022, published 2025).

pIC50: −log10 of the molar value.

Test [1] addresses T1, Recombinant STAT6 protein (STAT6 (W123-T658)) (Homo sapiens, UniProt P42226).
T1 construct: Recombinant STAT6 protein (STAT6 (W123-T658))
T1 sequence (P42226 123-658): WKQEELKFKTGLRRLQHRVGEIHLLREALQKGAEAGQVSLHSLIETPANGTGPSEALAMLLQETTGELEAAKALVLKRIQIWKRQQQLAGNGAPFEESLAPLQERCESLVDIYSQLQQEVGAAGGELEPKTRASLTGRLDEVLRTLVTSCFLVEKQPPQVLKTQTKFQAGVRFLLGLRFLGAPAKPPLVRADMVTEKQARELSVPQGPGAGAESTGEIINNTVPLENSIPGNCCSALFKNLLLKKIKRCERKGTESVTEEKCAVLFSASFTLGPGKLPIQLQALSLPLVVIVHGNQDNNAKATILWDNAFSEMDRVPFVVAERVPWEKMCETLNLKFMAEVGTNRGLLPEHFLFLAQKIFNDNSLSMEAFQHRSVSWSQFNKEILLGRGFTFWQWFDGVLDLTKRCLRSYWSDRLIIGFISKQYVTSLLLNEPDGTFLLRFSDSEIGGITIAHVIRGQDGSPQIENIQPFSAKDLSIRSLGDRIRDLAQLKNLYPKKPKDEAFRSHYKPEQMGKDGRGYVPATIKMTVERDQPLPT
Put plainly: STAT6 Fluorescence Polarization (FP) Assay. In kind it is binding. As to conditions: STAT6 (W123-T658) 250 nM, probe 5-FAM-Ap[…]-NH2 2 nM, 45-minute incubation; read-out: STAT6 (FP assay IC50 class). In a few lines: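 Recombinant STAT6 (W123-T658) at 250 nM mixed with 2 nM 5-FAM phosphotyrosine peptide probe in HEPES pH 7.4 buffer with DTT, 1% DMSO final, added to serially diluted compounds. FP (mP) read after 45 min at room temperature; IC50 by nonlinear regression vs log concentration.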
In general terms: In fluorescence polarisation assays a small probe gives low polarisation when free and higher when bound to something large.

Test [2] has as its target T2, Recombinant STAT3 protein (STAT3 (G127-I722)) (Homo sapiens, UniProt P40763).
T2 construct: Recombinant STAT3 protein (STAT3 (G127-I722))
Put plainly: STAT3 Fluorescence Polarization (FP) Assay. In kind it is binding. To be noted: STAT3 (G127-I722) 25 nM, probe 5-FAM-GpYLPQTV-NH2 2 nM, 45-minute incubation; read-out: STAT3 (FP assay IC50 class). In a few lines:
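Compounds in serial dilution receive a premix of STAT3 (G127-I722, 25 nM) and fluorescent phosphotyrosine peptide 5-FAM-GpYLPQTV-NH2 (2 nM) at pH 7.4. After 45 min at room temperature, FP is measured and IC50 derived by nonlinear regression.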

T2 sequence (P40763 127-722): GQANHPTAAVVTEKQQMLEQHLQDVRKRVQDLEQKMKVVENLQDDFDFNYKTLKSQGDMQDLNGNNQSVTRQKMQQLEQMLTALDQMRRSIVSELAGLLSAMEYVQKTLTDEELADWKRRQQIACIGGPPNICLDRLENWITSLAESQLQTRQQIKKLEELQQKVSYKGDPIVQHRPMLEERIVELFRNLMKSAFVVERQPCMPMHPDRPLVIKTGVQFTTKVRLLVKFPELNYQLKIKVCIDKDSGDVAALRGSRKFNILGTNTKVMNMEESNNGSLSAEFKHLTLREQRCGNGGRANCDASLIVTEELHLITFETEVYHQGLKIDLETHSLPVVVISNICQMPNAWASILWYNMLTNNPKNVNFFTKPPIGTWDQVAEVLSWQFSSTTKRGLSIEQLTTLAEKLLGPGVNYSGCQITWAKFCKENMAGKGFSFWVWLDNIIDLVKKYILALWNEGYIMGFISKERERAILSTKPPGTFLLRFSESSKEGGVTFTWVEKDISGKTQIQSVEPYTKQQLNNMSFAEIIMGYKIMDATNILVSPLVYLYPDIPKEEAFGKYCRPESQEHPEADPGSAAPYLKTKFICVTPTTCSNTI

What is called pIC50 is −log10 of the IC50, conventionally taken in molar units. For the compound `COc1cc(C)c(C2CN(C(=O)[C@@H]3CC[C@@H]4CCC[C@H](NC(=O)c5cc6cc(CP(=O)(O)O)ccc6s5)C(=O)N43)C2)cn1` [Compound 511, ((2-(((3S,6S,9aS)-3-(3-(6-methoxy-4-methylpyridin-3-yl)azetidine-1-carbonyl)-5-oxooctahydro-1H-pyrrolo[1,2-a]azepin-6-yl)carbamoyl)benzo[b]thiophen-5-yl)methyl)phosphonic acid], the negative logarithm of the IC50 (pIC50) in test [1] was 4.52 to 5.52; in test [2], 5.00 to 6.00.

Regarding `CN(C)c1ccncc1C1CN(C(=O)[C@@H]2CC[C@@H]3CCC[C@H](NC(=O)c4cc5cc(CP(=O)(O)O)ccc5s4)C(=O)N32)C1` [Compound 512, ((2-(((3S,6S,9aS)-3-(3-(4-(dimethylamino)pyridin-3-yl)azetidine-1-carbonyl)-5-oxooctahydro-1H-pyrrolo[1,2-a]azepin-6-yl)carbamoyl)benzo[b]thiophen-5-yl)methyl)phosphonic acid], the values for the pIC50 in test [1] and in test [2] were 4.52 to 5.52 and greater than 7.00, respectively.

Turning to `O=C(N[C@H]1CCCC[C@H]2CC[C@@H](C(=O)N3CCC(O)(c4cc[nH]c(=O)c4)C3)N2C1=O)c1cc2cc(C(F)(F)P(=O)(O)O)ccc2s1` (stereo partly drawn) [Compound 513, (difluoro(2-(((3S,6S,10aS)-3-(3-hydroxy-3-(2-oxo-1,2-dihydropyridin-4-yl)pyrrolidine-1-carbonyl)-5-oxodecahydropyrrolo[1,2-a]azocin-6-yl)carbamoyl)benzo[b]thiophen-5-yl)methyl)phosphonic acid], the pIC50 in test [1] was 5.52 to 6.52; in test [2], 6.00 to 7.00.

For `O=C(N[C@H]1CCC[C@H]2CC[C@@H](C(=O)N3CC(c4cnccc4F)C3)N2C1=O)c1cc2cc(CP(=O)(O)O)ccc2s1` [Compound 514, ((2-(((3S,6S,9aS)-3-(3-(4-fluoropyridin-3-yl)azetidine-1-carbonyl)-5-oxooctahydro-1H-pyrrolo[1,2-a]azepin-6-yl)carbamoyl)benzo[b]thiophen-5-yl)methyl)phosphonic acid], the negative-log IC50 (pIC50) is 4.52 to 5.52 in test [1] and greater than 7.00 in test [2].

Consider `N#Cc1nccc(C2CN(C(=O)[C@@H]3CC[C@@H]4CCC[C@H](NC(=O)c5cc6cc(CP(=O)(O)O)ccc6s5)C(=O)N43)C2)n1` [Compound 515, ((2-(((3S,6S,9aS)-3-(3-(2-cyanopyrimidin-4-yl)azetidine-1-carbonyl)-5-oxooctahydro-1H-pyrrolo[1,2-a]azepin-6-yl)carbamoyl)benzo[b]thiophen-5-yl)methyl)phosphonic acid], for which the pIC50 in test [1] was 4.52 to 5.52; in test [2], 5.00 to 6.00.

For `O=C(N[C@H]1CCCC[C@H]2CC[C@@H](C(=O)N3CC(c4cnccc4-c4ccccc4)C3)N2C1=O)c1cc2cc(C(F)(F)P(=O)(O)O)ccc2s1` [Compound 516, (difluoro(2-(((3S,6S,10aS)-5-oxo-3-(3-(4-phenylpyridin-3-yl)azetidine-1-carbonyl)decahydropyrrolo[1,2-a]azocin-6-yl)carbamoyl)benzo[b]thiophen-5-yl)methyl)phosphonic acid], the negative logarithm of the IC50 (pIC50) in test [1] was 5.52 to 6.52; in test [2], greater than 7.00.

In the case of `O=C(N[C@H]1CCC[C@H]2CC[C@@H](C(=O)N3CC(c4cnccc4C4CC4)C3)N2C1=O)c1cc2cc(CP(=O)(O)O)ccc2s1` [Compound 517, ((2-(((3S,6S,9aS)-3-(3-(4-cyclopropylpyridin-3-yl)azetidine-1-carbonyl)-5-oxooctahydro-1H-pyrrolo[1,2-a]azepin-6-yl)carbamoyl)benzo[b]thiophen-5-yl)methyl)phosphonic acid], the pIC50 in test [1] was 4.52 to 5.52; in test [2], 6.00 to 7.00.

On to `O=C(N[C@H]1CCCC[C@H]2CC[C@@H](C(=O)N3CC(c4cncc(-c5ccccc5)c4)C3)N2C1=O)c1cc2cc(C(F)(F)P(=O)(O)O)ccc2s1` [Compound 518, (difluoro(2-(((3S,6S,10aS)-5-oxo-3-(3-(5-phenylpyridin-3-yl)azetidine-1-carbonyl)decahydropyrrolo[1,2-a]azocin-6-yl)carbamoyl)benzo[b]thiophen-5-yl)methyl)phosphonic acid], for which the pIC50 in test [1] was 4.52 to 5.52; in test [2], 6.00 to 7.00.

On to `O=C(N[C@H]1CCC[C@H]2CC[C@@H](C(=O)N3CC(c4cnccc4Cl)C3)N2C1=O)c1cc2cc(CP(=O)(O)O)ccc2s1` [Compound 519, ((2-(((3S,6S,9aS)-3-(3-(4-chloropyridin-3-yl)azetidine-1-carbonyl)-5-oxooctahydro-1H-pyrrolo[1,2-a]azepin-6-yl)carbamoyl)benzo[b]thiophen-5-yl)methyl)phosphonic acid], for which the pIC50 in test [1] is 4.52 to 5.52; in test [2], 5.00 to 6.00.

For the compound `N#Cc1ccncc1C1CN(C(=O)[C@@H]2CC[C@@H]3CCC[C@H](NC(=O)c4cc5cc(CP(=O)(O)O)ccc5s4)C(=O)N32)C1` [Compound 520, ((2-(((3S,6S,9aS)-3-(3-(4-cyanopyridin-3-yl)azetidine-1-carbonyl)-5-oxooctahydro-1H-pyrrolo[1,2-a]azepin-6-yl)carbamoyl)benzo[b]thiophen-5-yl)methyl)phosphonic acid], the negative-log IC50 (pIC50) in test [1] was 4.52 to 5.52; in test [2], 5.00 to 6.00.

Consider `O=C(N[C@H]1CCCC[C@H]2CC[C@@H](C(=O)NCc3cnc4[nH]cnc4c3)N2C1=O)c1cc2cc(C(F)P(=O)(O)O)ccc2s1` (stereo partly drawn) [Compound 521, ((2-(((3S,6S,10aS)-3-(((3H-imidazo[4,5-b]pyridin-6-yl)methyl)carbamoyl)-5-oxodecahydropyrrolo[1,2-a]azocin-6-yl)carbamoyl)benzo[b]thiophen-5-yl)fluoromethyl)phosphonic acid], for which the pIC50 in test [1] was 4.52 to 5.52; in test [2] it was greater than 7.00.

For `COC(=O)N1CC[C@@H](NC(=O)[C@@H]2CC[C@@H]3CCCC[C@H](NC(=O)c4cc5cc(C(F)P(=O)(O)O)ccc5s4)C(=O)N32)C1` (stereo partly drawn) [Compound 522, (fluoro(2-(((3S,6S,10aS)-3-(((R)-1-(methoxycarbonyl)pyrrolidin-3-yl)carbamoyl)-5-oxodecahydropyrrolo[1,2-a]azocin-6-yl)carbamoyl)benzo[b]thiophen-5-yl)methyl)phosphonic acid], the figures for the pIC50 in test [1] and in test [2] were 5.52 to 6.52 and 5.00 to 6.00, respectively.

On to `COC(=O)N1CC(NC(=O)[C@@H]2CC[C@@H]3CCCC[C@H](NC(=O)c4cc5cc(C(F)P(=O)(O)O)ccc5s4)C(=O)N32)C1` (stereo partly drawn) [Compound 523], for which the pIC50 in test [1] is 4.52 to 5.52; in test [2], 5.00 to 6.00.

For the compound `O=C(N[C@H]1CCCC[C@H]2CC[C@@H](C(=O)NC3CN(C(=O)OCc4ccccc4)C3)N2C1=O)c1cc2cc(C(F)P(=O)(O)O)ccc2s1` (stereo partly drawn) [Compound 524, ((2-(((3S,6S,10aS)-3-((1-((benzyloxy)carbonyl)azetidin-3-yl)carbamoyl)-5-oxodecahydropyrrolo[1,2-a]azocin-6-yl)carbamoyl)benzo[b]thiophen-5-yl)fluoromethyl)phosphonic acid], the pIC50 in test [1] was 5.52 to 6.52; in test [2], 6.00 to 7.00.

Regarding `COC(=O)N1C[C@H](NC(=O)[C@@H]2CC[C@@H]3CCCC[C@H](NC(=O)c4cc5cc(C(F)P(=O)(O)O)ccc5s4)C(=O)N32)[C@@H](F)C1` (stereo partly drawn) [Compound 525, (fluoro(2-(((3S,6S,10aS)-3-(((3S,4S)-4-fluoro-1-(methoxycarbonyl)pyrrolidin-3-yl)carbamoyl)-5-oxodecahydropyrrolo[1,2-a]azocin-6-yl)carbamoyl)benzo[b]thiophen-5-yl)methyl)phosphonic acid], the figures for the pIC50 in test [1] and in test [2] were 5.52 to 6.52 and 5.00 to 6.00, respectively.
